Data reported in US20240368120A1 (Terns Pharmaceuticals, Inc., priority 2023, published 2024).

Target: T1, human GLP-1R receptor (Homo sapiens, UniProt P43220)
T1 construct: expressed in transfected cells
Experiment: GLP-1R low expression cell assay (cAMP TR-FRET, CHO-K1_hGLP-1Rlow_clone10 cells)
Type: cell-based
Conditions: for EC50: cAMP TR-FRET, 30 min at 25° C.; for Emax: maximum activation relative to control GLP-1 peptide agonist
In short: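 CHO-K1 cells stably expressing low surface human GLP-1R (clone10), 1,000 cells/well, exposed to 10-point 3-fold compound dilutions for 30 min at 25 °C. cAMP measured by TR-FRET (Eu-cAMP tracer/ULight-anti-cAMP, 15 min). EC50 from Hill fit of duplicate percent activation relative to a parallel GLP-1 control agonist.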

T1 sequence (P43220 24-463): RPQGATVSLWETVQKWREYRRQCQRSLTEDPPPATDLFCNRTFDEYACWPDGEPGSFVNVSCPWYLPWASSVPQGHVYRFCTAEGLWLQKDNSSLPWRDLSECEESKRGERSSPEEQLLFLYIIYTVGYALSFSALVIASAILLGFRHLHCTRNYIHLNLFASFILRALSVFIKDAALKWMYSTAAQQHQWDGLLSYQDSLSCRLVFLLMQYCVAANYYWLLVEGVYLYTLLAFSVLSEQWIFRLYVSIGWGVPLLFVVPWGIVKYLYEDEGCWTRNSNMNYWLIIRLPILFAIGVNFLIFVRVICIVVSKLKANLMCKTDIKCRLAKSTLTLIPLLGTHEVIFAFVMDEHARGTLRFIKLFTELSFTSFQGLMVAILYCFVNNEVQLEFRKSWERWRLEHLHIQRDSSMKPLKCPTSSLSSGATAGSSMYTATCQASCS

| Compound | EC50 [nM] | Emax [%] |
| --- | --- | --- |
| Cn1c(CN2CCC(c3cccc(COc4ccc(Cl)cc4F)n3)C2)nc2c(OC(F)F)cc(C(=O)O)cc21 (centres unmarked) [Compound 362, 2-((3-(6-((4-Chloro-2-fluorophenoxy)methyl)pyridin-2-yl)pyrrolidin-1-yl)methyl)-4-(difluoromethoxy)-1-methyl-1H-benzo[d]imidazole-6-carboxylic acid] | > 1000 | 50 to 85 |
| CCOc1cc(C(=O)O)cc2c1nc(CN1CCC(c3cccc4c3O[C@@H](c3ccc(Cl)cc3F)CO4)CC1)n2C [Compound 266, (S)-2-((4-(3-(4-chloro-2-fluorophenyl)-2,3-dihydrobenzo[b][1,4]dioxin-5-yl)piperidin-1-yl)methyl)-4-ethoxy-1-methyl-1H-benzo[d]imidazole-6-carboxylic acid] | < 10 | > 85 |
| COc1cc(C(=O)O)cc2c1nc(CN1CCC(c3cccc4c3O[C@H](c3ccc(Cl)cc3F)CO4)CC1)n2C [Compound 267, (R)-2-((4-(3-(4-Chloro-2-fluorophenyl)-2,3-dihydrobenzo[b][1,4]dioxin-5-yl)piperidin-1-yl)methyl)-4-methoxy-1-methyl-1H-benzo[d]imidazole-6-carboxylic acid] | 100 to 1000 | > 85 |
| Cn1c(CN2CCC(c3ncc(F)c(OCc4ccc(Cl)cc4F)n3)CC2)nc2c(OC(F)F)cc(C(=O)O)cc21 [Compound 356, 2-((4-(4-((4-Chloro-2-fluorobenzyl)oxy)-5-fluoropyrimidin-2-yl)piperidin-1-yl)methyl)-4-(difluoromethoxy)-1-methyl-1H-benzo[d]imidazole-6-carboxylic acid] | 10 to 100 | > 85 |
| Cn1c(CN2CCC(c3cccc(OCc4ccc(C(F)(F)F)cn4)n3)CC2)nc2c(OC(F)F)cc(C(=O)O)cc21 [Compound 229, 4-(Difluoromethoxy)-1-methyl-2-((4-(6-((5-(trifluoromethyl)pyridin-2-yl)methoxy)pyridin-2-yl)piperidin-1-yl)methyl)-1H-benzo[d]imidazole-6-carboxylic acid] | 100 to 1000 | > 85 |
| COc1cc(C(=O)O)cc2c1nc(CN1CCC(c3cccc4c3O[C@@H](c3ccc(C#N)cc3F)CO4)CC1)n2Cc1cncs1 [Compound 63, (S)-2-((4-(3-(4-cyano-2-fluorophenyl)-2,3-dihydrobenzo[b][1,4]dioxin-5-yl)piperidin-1-yl)methyl)-4-methoxy-1-(thiazol-5-ylmethyl)-1H-benzo[d]imidazole-6-carboxylic acid] | < 10 | – |
| CC(=O)Oc1cc(C(=O)O)cc2c1nc(CN1CCC(c3cccc(OCc4ccc(C#N)cc4F)n3)CC1)n2C [Compound 128, 4-Acetoxy-2-((4-(6-((4-cyano-2-fluorobenzyl)oxy)pyridin-2-yl)piperidin-1-yl)methyl)-1-methyl-1H-benzo[d]imidazole-6-carboxylic acid] | 10 to 100 | > 85 |
| Cn1c(CN2CCC(c3ccc4c(c3)N(Cc3ccc(Cl)cc3F)CCO4)CC2)nc2c(OC(F)F)cc(C(=O)O)cc21 [Compound 373, 2-((4-(4-(4-Chloro-2-fluorobenzyl)-3,4-dihydro-2H-benzo[b][1,4]oxazin-6-yl)piperidin-1-yl)methyl)-4-(difluoromethoxy)-1-methyl-1H-benzo[d]imidazole-6-carboxylic acid] | > 1000 | < 25 |
| COCCOc1cc(C(=O)O)cc2c1nc(CN1CCC(c3cccc4c3O[C@@](C)(c3ccc(Cl)cn3)O4)CC1)n2Cc1cncs1 [Compound 2, (S)-2-((4-(2-(5-Chloropyridin-2-yl)-2-methylbenzo[d][1,3]dioxol-4-yl)piperidin-1-yl)methyl)-4-(2-methoxyethoxy)-1-(thiazol-5-ylmethyl)-1H-benzo[d]imidazole-6-carboxylic acid] | < 10 | > 85 |
| C[C@@H](Oc1ccccc1C1CCN(Cc2nc3c(OC(F)F)cc(C(=O)O)cc3n2C)CC1)c1ccc(C#N)cc1F (single isomer, unassigned) [Compound 173] | > 1000 | < 25 |
| COc1cc(C(=O)O)cc2c1nc(N(C)[C@H]1CC[C@@H](c3cccc4c3O[C@@](C)(c3ccc(Cl)cn3)O4)CC1)n2C[C@@H]1CCO1 [Compound 79, 2-(((1R,4R)-4-((S)-2-(5-chloropyridin-2-yl)-2-methylbenzo[d][1,3]dioxol-4-yl)cyclohexyl)(methyl)amino)-4-methoxy-1-(((S)-oxetan-2-yl)methyl)-1H-benzo[d]imidazole-6-carboxylic acid] | 100 to 1000 | > 85 |
| CC(Oc1ccccc1C1CCN(Cc2nc3c(OC(F)F)cc(C(=O)O)cc3n2C)CC1)c1ccc(C#N)cc1F (single isomer, unassigned) [Compound 174] | > 1000 | < 25 |
| COCCOc1cc(C(=O)O)cc2nc(CN3CCC(c4cccc5c4O[C@@](C)(c4ccc(Cl)cn4)O5)CC3)n(C)c12 [Compound 76, (S)-2-((4-(2-(5-Chloropyridin-2-yl)-2-methylbenzo[d][1,3]dioxol-4-yl)piperidin-1-yl)methyl)-7-(2-methoxyethoxy)-1-methyl-1H-benzo[d]imidazole-5-carboxylic acid] | > 1000 | 50 to 85 |
| COCCOc1cc(C(=O)O)cc2c1nc(CN1CCC(c3cccc4c3O[C@@](C)(c3ccc(Cl)cn3)O4)CC1)n2C [Compound 30, (S)-2-((4-(2-(5-Chloropyridin-2-yl)-2-methylbenzo[d][1,3]dioxol-4-yl)piperidin-1-yl)methyl)-4-(2-methoxyethoxy)-1-methyl-1H-benzo[d]imidazole-6-carboxylic acid] | < 10 | – |
| Cn1c(CN2CCC(c3cccc4c3O[C@H](c3ccc(C#N)cc3F)CO4)CC2)nc2c(OCCF)cc(C(=O)O)cc21 [Compound 315, (R)-2-((4-(3-(4-Cyano-2-fluorophenyl)-2,3-dihydrobenzo[b][1,4]dioxin-5-yl)piperidin-1-yl)methyl)-4-(2-fluoroethoxy)-1-methyl-1H-benzo[d]imidazole-6-carboxylic acid] | 10 to 100 | > 85 |

Other lines, results leading:

| EC50 [nM] | Emax [%] | Compound |
| --- | --- | --- |
| 100 to 1000 | 50 to 85 | Cn1c(CN2CCC(c3nc(OCc4ccc(Cl)cc4F)ccc3F)CC2)nc2c(OC(F)F)cc(C(=O)O)cc21 [Compound 243, 2-((4-(6-((4-Chloro-2-fluorobenzyl)oxy)-3-fluoropyridin-2-yl)piperidin-1-yl)methyl)-4-(difluoromethoxy)-1-methyl-1H-benzo[d]imidazole-6-carboxylic acid] |
| < 10 | > 85 | COc1cc(C#N)ccc1COc1cccc(C2CCN(Cc3nc4c(OC)cc(C(=O)O)cc4n3C)CC2)n1 [Compound 344, 2-((4-(6-((4-Cyano-2-methoxybenzyl)oxy)pyridin-2-yl)piperidin-1-yl)methyl)-4-methoxy-1-methyl-1H-benzo[d]imidazole-6-carboxylic acid] |
| 10 to 100 | > 85 | CCCOc1cc(C(=O)O)cc2c1nc(CN1CCC(c3cccc(OCc4ccc(Cl)cc4F)n3)CC1)n2C [Compound 322, 2-((4-(6-((4-chloro-2-fluorobenzyl)oxy)pyridin-2-yl)piperidin-1-yl)methyl)-1-methyl-4-propoxy-1H-benzo[d]imidazole-6-carboxylic acid] |
| 10 to 100 | – | Cn1c(CN2CCC(c3cccc(OCc4ccc(Cl)cc4F)n3)CC2)nc2c(OC(F)F)nc(C(=O)O)cc21 [Compound 253, 2-((4-(6-((4-Chloro-2-fluorobenzyl)oxy)pyridin-2-yl)piperidin-1-yl)methyl)-4-(difluoromethoxy)-1-methyl-1H-imidazo[4,5-c]pyridine-6-carboxylic acid] |
| 100 to 1000 | > 85 | Cn1c(CN2CCC(c3cccc(OCc4ccc(C#N)cc4F)n3)CC2)nc2c(Oc3ccc(F)cc3)cc(C(=O)O)cc21 [Compound 352, 2-((4-(6-((4-Cyano-2-fluorobenzyl)oxy)pyridin-2-yl)piperidin-1-yl)methyl)-4-(4-fluorophenoxy)-1-methyl-1H-benzo[d]imidazole-6-carboxylic acid] |
| < 10 | > 85 | COc1cc(C(=O)O)cc2c1nc(Cc1ccc(-c3cccc(OCc4ccc(C#N)cc4F)n3)cc1F)n2C [Compound 342, 2-(4-(6-((4-cyano-2-fluorobenzyl)oxy)pyridin-2-yl)-2-fluorobenzyl)-4-methoxy-1-methyl-1H-benzo[d]imidazole-6-carboxylic acid] |
| > 1000 | 25 to 50 | Cn1c(CN2CCC(c3cccc(OCc4ccc(C#N)cc4F)c3Cl)CC2)nc2c(OC(F)F)cc(C(=O)O)cc21 [Compound 179, 2-((4-(2-Chloro-3-((4-cyano-2-fluorobenzyl)oxy)phenyl)piperidin-1-yl)methyl)-4-(difluoromethoxy)-1-methyl-1H-benzo[d]imidazole-6-carboxylic acid] |
| > 1000 | 25 to 50 | Cn1c(CN2CCC(c3cc(OCc4ccc(Cl)cc4F)ccc3F)CC2)nc2c(OC(F)F)cc(C(=O)O)cc21 [Compound 167, 2-((4-(5-((4-Chloro-2-fluorobenzyl)oxy)-2-fluorophenyl)piperidin-1-yl)methyl)-4-(difluoromethoxy)-1-methyl-1H-benzo[d]imidazole-6-carboxylic acid] |
| < 10 | > 85 | COc1cc(C(=O)O)cc2c1nc(Cc1cc(F)c(-c3cccc(OCc4ccc(Cl)cc4F)n3)cc1F)n2C [Compound 282, 2-(4-(6-((4-Chloro-2-fluorobenzyl)oxy)pyridin-2-yl)-2,5-difluorobenzyl)-4-methoxy-1-methyl-1H-benzo[d]imidazole-6-carboxylic acid] |
| 10 to 100 | > 85 | COc1cc(C(=O)O)nc2c1nc(CN1CCC(c3cccc(OCc4ccc(C#N)cc4F)n3)CC1)n2C [Compound 323, 2-((4-(6-((4-Cyano-2-fluorobenzyl)oxy)pyridin-2-yl)piperidin-1-yl)methyl)-7-methoxy-3-methyl-3H-imidazo[4,5-b] pyridine-5-carboxylic acid] |
